Test results: patent publication EP0516861A1, “PYRIDONECARBOXYLIC ACID DERIVATIVE” (BANYU PHARMACEUTICAL CO., LTD., priority 1990, dated 1992)
Converted amounts (≈) assume the structure as drawn. Structures can show the parent of a compound that is named as a salt. Where two headings read alike, the source gives them in different places.

Legend:
S.aureus BB5769 = experiment: In vitro antibacterial activity, agar plate dilution method; assay type: cell-based; details: Staphylococcus aureus, MH agar, 10⁶CFU/ml, 16 hours at 37°C, read-out: Minimum inhibitory concentration (MIC) S.aureus BB5769
Protocol: (§1) One platinum loopful portions of a test strain (quantity of each strain inoculated : 10⁶CFU/ml) cultured overnight in Mueller Hinton broth were inoculated respectively into MH agars containing an antibacterial agent in various concentrations. After 16 hours culture at 37°C, minimum inhibitory concentration (MIC: µg/ml) was measured.

S.aureus JS1 = experiment: as above; assay type: cell-based; details: Staphylococcus aureus, β-lactamase-producing bacterium, MH agar, 10⁶CFU/ml, 16 hours at 37°C, read-out: Minimum inhibitory concentration (MIC) S.aureus JS1
Protocol: as §1

S.aureus BB5703 = experiment: as above; assay type: cell-based; details: Staphylococcus aureus, MH agar, 10⁶CFU/ml, 16 hours at 37°C, read-out: Minimum inhibitory concentration (MIC) S.aureus BB5703
Protocol: as §1

L1210 = experiment: Life-span prolonging effect on L1210 leukemia-bearing mice; assay type: in vivo, CDF₁ mice; details: for effect at an administration quantity of 0.02 mg/kg: life-span prolongation, 0.02 mg/kg intraperitoneal
Protocol: (§2) In this experiment, 10⁶ L1210 cells or 10⁴ P388 cells were intraperitoneally transplanted into CDF₁ mice (♀, 5 weeks old), a drug in the various concentrations was intraperitoneally injected once a day for continuous 10 days from the day after the transplantation, and survival periods after the tumor transplantation were recorded.

DNA topoisomerase II = experiment: DNA topoisomerase inhibition activity (DNA relaxation, agarose-gel electrophoresis); assay type: biochemical, murine; details: relaxation of supercoiled pBR 322 plasmid DNA, 37°C for 10 minutes, enzyme from L1210 nuclei
Protocol: (§3) In this experiment, as enzymes were used DNA topoisomerase I and DNA topoisomerase II obtained by purifying an extract from the nuclei of cells of L1210 murine leukemia by column chromatography using hydroxylapatite and phosphocellulose, respectively, and as a DNA was used supercoiled pBR 322 plasmid DNA.
(§4) Measurement of inhibition effect was made by the method disclosed in a literature, i. e. Okura et al., Biochem. Biophys. Res. Comm. 157, 183 - 189, 1988, namely by warming at 37°C for 10 minutes the supercoiled DNA in DNA topoisomerase I or DNA topoisomerase II solutions containing a drug in various concentrations, and then detecting the resultant topology changes of the DNA as changes of the electrophoretic images in agarose - gel electrophoresis.

DNA topoisomerase I = biological target: T1, DNA topoisomerase I (Mus musculus, UniProt Q04750); experiment: as above; assay type: biochemical, murine; details: relaxation of supercoiled pBR 322 plasmid DNA, 37°C for 10 minutes, enzyme from L1210 nuclei; read-out: IC₅₀ DNA topoisomerase I (converted)
T1 construct: obtained by purifying an extract from the nuclei of cells of L1210 murine leukemia by column chromatography; endogenous in cells; host or cells: L1210 murine leukemia cells (nuclear extract, purified on hydroxylapatite / phosphocellulose columns)
T1 sequence (Q04750 1-767): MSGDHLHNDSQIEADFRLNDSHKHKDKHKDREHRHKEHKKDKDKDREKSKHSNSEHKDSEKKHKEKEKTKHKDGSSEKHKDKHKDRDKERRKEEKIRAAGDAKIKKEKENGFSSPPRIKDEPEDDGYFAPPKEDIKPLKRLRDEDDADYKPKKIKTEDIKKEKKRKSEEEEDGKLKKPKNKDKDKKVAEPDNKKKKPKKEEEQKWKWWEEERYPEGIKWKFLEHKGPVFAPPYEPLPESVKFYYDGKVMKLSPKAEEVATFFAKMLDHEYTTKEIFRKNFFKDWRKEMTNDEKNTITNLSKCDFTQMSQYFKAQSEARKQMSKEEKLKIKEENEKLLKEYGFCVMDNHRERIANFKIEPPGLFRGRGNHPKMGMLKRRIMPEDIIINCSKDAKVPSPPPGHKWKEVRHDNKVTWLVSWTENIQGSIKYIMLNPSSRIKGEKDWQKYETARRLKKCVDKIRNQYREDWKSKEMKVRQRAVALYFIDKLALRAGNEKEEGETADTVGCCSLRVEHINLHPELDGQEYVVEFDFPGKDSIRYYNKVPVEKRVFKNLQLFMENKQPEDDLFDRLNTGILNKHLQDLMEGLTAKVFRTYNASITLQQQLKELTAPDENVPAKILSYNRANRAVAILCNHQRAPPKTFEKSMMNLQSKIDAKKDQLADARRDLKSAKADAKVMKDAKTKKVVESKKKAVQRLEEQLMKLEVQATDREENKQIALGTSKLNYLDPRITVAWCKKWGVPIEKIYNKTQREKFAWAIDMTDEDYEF
Protocol: as §3, §4

L1210 cells = experiment: In vitro cytotoxicity against L1210 murine leukemia (proliferation inhibition); assay type: cell-based; details: Mus musculus, read-out: IC₅₀
Protocol: In this experiment, respective 2 × 10⁴ L1210 cells were cultured at 37°C under 5% CO₂ gas for 3 days in respective RPMI 1640 media containing a drug in various concentrations and 10 % fetal bovine serum, and the numbers of the cells after the culture were counted using a Coulter counter.

[1] = Acute toxicity against a mouse; assay type: in vivo, CDF₁ mice; details: 5 mg/kg intravenously, observation for one week
Protocol: 5 mg/kg portions of the compound of Example 9 were intravenously injected into CDF₁ mice (♀, 5 weeks old) according to a conventional manner, respectively.

P388 = experiment: Life-span prolonging effect on P388 leukemia-bearing mice; assay type: in vivo, CDF₁ mice
Protocol: as §2

P388/VCR = experiment: Proliferation inhibition, multiple drug-resistant P388 cells (MTT method); assay type: cell-based, murine; details: Mus musculus, 72 h, 3 days culture, read-out: IC₅₀ P388/VCR
Protocol: (§5) Proliferation inhibition effects againt P388/multiple drug - resistant cells were measured using vincristine and adriamycin as comparative compounds.
(§6) In this experiment, a drug - sensitive strain (P388/S) of a murine leukemia cell P388 and a drug - resistant strain (P388/VCR, T. Turuo, H. Iida, S. Tsukagoshi, et al., Cancer Research 42, 4730 - 4733, 1982) were suspended respectively in RPMI 1640 media containing a drug in various concentrations, 10 % fetal bovine serum and 20 µ M β - mercaptoethanol, respectively, and seeded in a 96 - well microtest plate in a number of 10⁴ cells/well, and cultured at 37°C under CO₂ gas for 3 days. Calculation of 50% proliferation inhibition concentration (IC₅₀) was made by the MTT method (M. C. Alley, D. A. Scudiero, A. Monks, et al., Cancer Research 48, 589 - 601, 1988).

P388/V = experiment: Proliferation inhibition, drug-sensitive P388 cells (MTT method); assay type: cell-based, murine; details: Mus musculus, P388, 72 h, 3 days culture, read-out: IC₅₀ P388/V
Protocol: as §5, §6

[2] = dose 0.020 mg/kg intraperitoneally once a day for 10 days
[3] = dose 0.078 mg/kg intraperitoneally once a day for 10 days
[4] = dose 0.313 mg/kg intraperitoneally once a day for 10 days
[5] = 72 h, L1210 cells, cultured 3 days, Coulter counter

MIC (S.aureus BB5769) [µg/mL] | MIC (S.aureus JS1) [µg/mL] | MIC (S.aureus BB5703) [µg/mL] | IC50 (P388/VCR) [µg/mL] | IC50 (P388/V) [µg/mL] | Structure (SMILES) | Mean survival days L1210 (L1210; [2]) [days] | T/C % L1210 (L1210; [2]) [%] | Mean survival days L1210 (L1210; [3]) [days] | T/C % L1210 (L1210; [3]) [%] | Mean survival days L1210 (L1210; [4]) [days] | T/C % L1210 (L1210; [4]) [%] | effect at an administration quantity of 0.02 mg/kg (L1210) | IC₅₀ DNA topoisomerase II (DNA topoisomerase II) [µg/mL] | IC50 (DNA topoisomerase I) [µM] | IC50 (L1210 cells; [5]) [µg/mL] | other results
< 0.006 | < 0.006 | < 0.006 | – | – | CN[C@@H]1C=CC[C@@H]2CN(c3c(F)cc4c(=O)c(C(=O)O)cn(C5CC5)c4c3F)C[C@@H]21.O=C(O)C(F)(F)F (relative stereo) [Compound of Ex.2, 1 - cyclopropyl - 6, 8 - difluoro - 1, 4 - dihydro - 7 - [(1R*, 2R*, 6S*) - 2 - (N - methylamino) - 8 - azabicyclo [4.3.0]non - 3 - en - 8 - yl] - 4 - oxo - 3 - quinolinecarboxylic acid trifluoroacetate] | – | – | – | – | – | – | – | – | – | – | –
– | – | – | – | – | COc1c(N2C[C@H]3CC=C[C@@H](N)[C@H]3C2)c(F)cc2c(=O)c(C(=O)O)cn(C3CC3)c12 (relative stereo) [Compound of Ex.11, (-) - 7 - [(1R*, 2R*, 6S*) - 2 - amino - 8 - azabicyclo [4.3.0]non - 3 - en - 8 - yl] - 1 - cyclopropyl - 6 - fluoro - 1, 4 - dihydro - 8 - methoxy - 4 - oxo - 3 - quinolinecarboxlic acid hydrochloride] | 25.8 | 188 | > 50.8 | 371 | 16.4 | 120 | effective | 2 | 3020 | – | IC50 (L1210 cells; L1210, 72 h): 0.032 µg/mL
< 0.006 | < 0.006 | < 0.006 | – | – | Cl.Nc1c(F)c(N2C[C@H]3CC=C[C@@H](N)[C@H]3C2)c(F)c2c1c(=O)c(C(=O)O)cn2C1CC1 (single isomer, unassigned) [Compound of Ex.13, (-) - 5 - amino - 7 - [(1R*, 2R*, 6S*) 2 - amino - 8 - azabicyclo [4.3.0]non - 3 - en - 8 - yl] - 1 - cyclopropyl - 6, 8 - difluoro - 1, 4 - dihydro - 4 - oxo - 3 - quinolinecarboxylic acid hydrochloride] | – | – | – | – | – | – | – | 4 | 221 | 0.0015 | –
– | – | – | 0.063 (≈ 0.116 µM) | 0.021 (≈ 0.0386 µM) | COc1cccc2c1C(=O)c1c(O)c3c(c(O)c1C2=O)C[C@@](O)(C(=O)CO)C[C@@H]3O[C@H]1C[C@H](N)[C@H](O)[C@H](C)O1 [Adriamycin, adriamycin] | – | – | – | – | – | – | – | – | – | – | –
– | – | – | – | – | CC[C@@]1(O)C(=O)OCc2c1cc1n(c2=O)Cc2cc3ccccc3nc2-1 [Camptothecin, camptothecin, reference compound] | – | – | – | – | – | – | – | > 10 | – | 0.04 (≈ 0.115 µM) | –
– | – | – | – | – | COc1cc([C@@H]2c3cc4c(cc3[C@@H](O[C@@H]3O[C@@H]5CO[C@@H](C)O[C@H]5[C@H](O)[C@H]3O)[C@H]3COC(=O)[C@H]23)OCO4)cc(OC)c1O [Etoposide, etoposide, reference compound] | 14.2 | 104 | 22.8 | 166 | 31.4 | 229 | no effect | – | – | 0.021 (≈ 0.0357 µM) | Mean survival days P388 (P388; [2]): 12.8 days; T/C % P388 (P388; [2]): 114%; Mean survival days P388 (P388; [3]): 16.6 days; T/C % P388 (P388; [3]): 148%; Mean survival days P388 (P388; [4]): 22.2 days; T/C % P388 (P388; [4]): 198%
– | – | – | 0.019 (≈ 0.023 µM) | 0.00032 (≈ 0.000388 µM) | CC[C@]1(O)C[C@H]2CN(CCc3c([nH]c4ccccc34)[C@@](C(=O)OC)(c3cc4c(cc3OC)N(C=O)[C@H]3[C@@](O)(C(=O)OC)[C@H](OC(C)=O)[C@]5(CC)C=CCN6CC[C@]43[C@@H]65)C2)C1 [Vincristine, vincristine] | – | – | – | – | – | – | – | – | – | – | –

Structure (SMILES) | MIC (S.aureus BB5769) [µg/mL] | MIC (S.aureus JS1) [µg/mL] | MIC (S.aureus BB5703) [µg/mL] | IC50 (P388/VCR) [µg/mL] | IC50 (P388/V) [µg/mL] | Mean survival days L1210 (L1210; [2]) [days] | T/C % L1210 (L1210; [2]) [%] | Mean survival days L1210 (L1210; [3]) [days] | T/C % L1210 (L1210; [3]) [%] | Mean survival days L1210 (L1210; [4]) [days] | T/C % L1210 (L1210; [4]) [%] | effect at an administration quantity of 0.02 mg/kg (L1210) | IC₅₀ DNA topoisomerase II (DNA topoisomerase II) [µg/mL] | IC50 (DNA topoisomerase I) [µM] | IC50 (L1210 cells; [5]) [µg/mL] | other results
N[C@@H]1C=CC[C@@H]2CN(c3c(F)cc4c(=O)c(C(=O)O)cn(C5CC5)c4c3F)C[C@@H]21.O=C(O)C(F)(F)F (relative stereo) [Compound of Ex.1, 7 - [(1R*, 2R*, 6S*) - 2 - amino - 8 - azabicyclo [4.3.0]non - 3 - en - 8 - yl] - 1 - cyclopropyl - 6, 8 - difluoro - 1, 4 - dihydro-4 - oxo - 3 - quinolinecarboxylic acid trifluoroacetate] | < 0.006 | < 0.006 | < 0.006 | – | – | – | – | – | – | – | – | – | – | – | – | –
Cl.N[C@@H]1C=CC[C@@H]2CN(c3c(F)cc4c(=O)c(C(=O)O)cn(C5CC5)c4c3F)C[C@@H]21 (single isomer, unassigned) [Compound of Ex.9, (-) - 7 - [(1R*, 2R*, 6S*) - 2 - amino - 8 - azabicyclo [4.3.0]non - 3 - en - 8 - yl] - 1 - cyclopropyl - 6, 8 - difluoro - 1, 4 - dihydro - 4 - oxo - 3 - quinolinecarboxylic acid hydrochloride] | – | – | – | 0.018 | 0.018 | 31.0 | 226 | 32.4 | 236 | 21.2 | 155 | effective | 2 | 457 | 0.019 | death in acute toxicity test [1]: No case of death; Mean survival days P388 (P388; [2]): 12.0 days; T/C % P388 (P388; [2]): 107%; Mean survival days P388 (P388; [3]): 14.0 days; T/C % P388 (P388; [3]): 125%; Mean survival days P388 (P388; [4]): 16.4 days; T/C % P388 (P388; [4]): 146%
